From PubChem BioAssay AID248 (DTP/NCI, 2004)
“And” between values parts separate entries of the source, which are not always exact repeats. Equal values may be shown once. Toxic doses and inconclusive results are not listed. No stated cut-off is given here; in the data, active means T/C of 150% or more; inactive means T/C below 125%.

Tested on: L1210 leukemia ip in BDF1 mice, survival T/C
Test: NCI In Vivo Anticancer Drug Screen. Data for tumor model L1210 Leukemia (intraperitoneal) in B6D2F1 (BDF1) mice
Conditions: endpoint: mean survival time, higher = longer survival
In short: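 Tumor cells were implanted, animals were treated, and survival was followed. The result divides the treated measurement by the vehicle-control measurement.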

[1] = dose: 100.0 mg/kg/injection, schedule: Q01DX001 (ip), vehicle: Klucel (hydroxypropylcellulose) (HPC)
[2] = dose: 100.0 mg/kg/injection, schedule: Q04DX003 (ip), vehicle: Klucel (hydroxypropylcellulose) (HPC)
[3] = dose: 200.0 mg/kg/injection, schedule: Q01DX001 (ip), vehicle: Klucel (hydroxypropylcellulose) (HPC)
[4] = dose: 200.0 mg/kg/injection, schedule: Q04DX003 (ip), vehicle: Klucel (hydroxypropylcellulose) (HPC)
[5] = dose: 400.0 mg/kg/injection, schedule: Q01DX001 (ip), vehicle: Klucel (hydroxypropylcellulose) (HPC)
[6] = dose: 100.0 mg/kg/injection, schedule: Q01DX009 (ip), vehicle: saline with Tween-80
[7] = dose: 200.0 mg/kg/injection, schedule: Q01DX009 (ip), vehicle: saline with Tween-80
[8] = dose: 100.0 mg/kg/injection, schedule: Q01DX001 (ip), vehicle: saline with Tween-80
[9] = dose: 200.0 mg/kg/injection, schedule: Q01DX001 (ip), vehicle: saline with Tween-80
[10] = dose: 100.0 mg/kg/injection, schedule: Q01DX009 (ip), vehicle: Klucel (hydroxypropylcellulose) (HPC)
[11] = dose: 100.0 mg/kg/injection, schedule: Q01DX001 (ip), vehicle: carboxymethylcellulose (CMC)
[12] = dose: 200.0 mg/kg/injection, schedule: Q01DX001 (ip), vehicle: carboxymethylcellulose (CMC)
[13] = dose: 400.0 mg/kg/injection, schedule: Q01DX001 (ip), vehicle: carboxymethylcellulose (CMC)
[14] = dose: 50.0 mg/kg/injection, schedule: Q01DX001 (ip), vehicle: carboxymethylcellulose (CMC)
[15] = dose: 100.0 mg/kg/injection, schedule: Q04DX003 (ip), vehicle: saline with Tween-80
[16] = dose: 200.0 mg/kg/injection, schedule: Q04DX003 (ip), vehicle: saline with Tween-80
[17] = dose: 400.0 mg/kg/injection, schedule: Q04DX003 (ip), vehicle: saline with Tween-80
[18] = dose: 100.0 mg/kg/injection, schedule: Q01DX001 (ip), vehicle: saline
[19] = dose: 200.0 mg/kg/injection, schedule: Q01DX001 (ip), vehicle: saline
[20] = dose: 400.0 mg/kg/injection, schedule: Q01DX009 (ip), vehicle: saline with Tween-80

Measured: T/C

CCC[As](=O)(O)Cc1ccccc1C
inactive: dose: 0.78 mg/kg/injection, schedule: Q01DX009 (ip), vehicle: saline with Tween-80 95 % of control | dose: 1.56 mg/kg/injection, schedule: Q01DX009 (ip), vehicle: saline with Tween-80 97 % of control | dose: 1.56 mg/kg/injection, schedule: Q04DX003 (ip), vehicle: saline with Tween-80 93 % of control | dose: 3.12 mg/kg/injection, schedule: Q01DX009 (ip), vehicle: saline with Tween-80 97 % of control | dose: 3.12 mg/kg/injection, schedule: Q04DX002 (ip), vehicle: saline with Tween-80 103 % of control | dose: 3.12 mg/kg/injection, schedule: Q04DX003 (ip), vehicle: saline with Tween-80 97 % of control | dose: 6.25 mg/kg/injection, schedule: Q01DX001 (ip), vehicle: saline with Tween-80 106 % of control | dose: 6.25 mg/kg/injection, schedule: Q01DX009 (ip), vehicle: saline with Tween-80 101 % of control and 103 % of control | dose: 6.25 mg/kg/injection, schedule: Q04DX003 (ip), vehicle: saline with Tween-80 95 % of control | dose: 12.5 mg/kg/injection, schedule: Q01DX001 (ip), vehicle: saline with Tween-80 109 % of control | dose: 12.5 mg/kg/injection, schedule: Q04DX002 (ip), vehicle: saline with Tween-80 90 % of control | dose: 12.5 mg/kg/injection, schedule: Q04DX003 (ip), vehicle: saline with Tween-80 103 % of control

Fc1c(F)c(Oc2c(F)c(F)c(C(F)(F)F)c(F)c2F)c(F)c(Oc2c(F)c(F)c(C(F)(F)F)c(F)c2F)c1F
inactive: [1] 96 % of control | [2] 98 % of control | [3] 100 % of control | [4] 95 % of control | [5] 89 % of control | dose: 400.0 mg/kg/injection, schedule: Q04DX003 (ip), vehicle: Klucel (hydroxypropylcellulose) (HPC) 97 % of control

CC(C)[Si](F)(c1ccc(Br)cc1)C(C)C
inactive: [6] 103 % of control | [7] 95 % of control

S=C(Nc1ccccc1)Nc1ccc(NC(=S)Nc2ccccc2)cc1
inactive: [8] 96 % of control | [9] 92 % of control

CC(C)NC1(C(N)=O)CCN(Cc2ccccc2)CC1
inactive: dose: 50.0 mg/kg/injection, schedule: Q01DX009 (ip), vehicle: Klucel (hydroxypropylcellulose) (HPC) 95 % of control | dose: 50.0 mg/kg/injection, schedule: Q04DX003 (ip), vehicle: Klucel (hydroxypropylcellulose) (HPC) 98 % of control | [10] 100 % of control | [2] 93 % of control | dose: 200.0 mg/kg/injection, schedule: Q01DX009 (ip), vehicle: Klucel (hydroxypropylcellulose) (HPC) 104 % of control | [4] 95 % of control

Nc1nc(SCc2ccccc2)c2ncn(C3CCCC3)c2n1
inactive: [11] 95 % of control | [12] 95 % of control | [13] 92 % of control | dose: 700.0 mg/kg/injection, schedule: Q01DX015 (ip), vehicle: carboxymethylcellulose (CMC) 101 % of control | dose: 800.0 mg/kg/injection, schedule: Q01DX015 (ip), vehicle: carboxymethylcellulose (CMC) 101 % of control

CC(C)(O)CC1=C(O)c2ccccc2C(=O)C1=O
inactive: [14] 105 % of control | [11] 97 % of control | [12] 105 % of control | [13] 105 % of control

Cc1nc(Cl)c(C#N)c(C(F)(F)F)c1N
inactive: dose: 100.0 mg/kg/injection, schedule: Q01DX Z (ip), vehicle: carboxymethylcellulose (CMC) 95 % of control

CC(C)(C)C(=O)Nc1ccc(NS(=O)(=O)c2ccccc2)cc1
inactive: [15] 102 % of control | [16] 89 % of control | [17] 88 % of control

N#CCCCCCCCCCC#N
inactive: dose: 10.0 mg/kg/injection, schedule: Q04DX003 (ip), vehicle: Klucel (hydroxypropylcellulose) (HPC) 93 % of control | dose: 20.0 mg/kg/injection, schedule: Q04DX003 (ip), vehicle: Klucel (hydroxypropylcellulose) (HPC) 100 % of control | dose: 40.0 mg/kg/injection, schedule: Q04DX003 (ip), vehicle: Klucel (hydroxypropylcellulose) (HPC) 109 % of control | [10] 96 % of control

CCN(CC)/N=N/c1[nH]ncc1C(N)=O
inactive: dose: 88.0 mg/kg/injection, schedule: Q01DX009 (ip), vehicle: saline with Tween-80 119 % of control | [8] 111 % of control | [15] 101 % of control | [9] 103 % of control | [16] 103 % of control | dose: 300.0 mg/kg/injection, schedule: Q01DX009 (ip), vehicle: saline with Tween-80 110 % of control | dose: 400.0 mg/kg/injection, schedule: Q01DX001 (ip), vehicle: saline with Tween-80 106 % of control | [17] 108 % of control

COc1ccc(-n2c(=O)c(N=Nc3ccccc3Cl)c(O)n(-c3ccccc3C)c2=S)cc1
inactive: [1] 97 % of control | [3] 93 % of control | [5] 104 % of control

Clc1cccc(C[N+]23CC[N+](Cc4cccc(Cl)c4)(CC2)C3)c1
inactive: [18] 103 % of control | [19] 111 % of control

CSc1ccc(NC(=O)Nc2ccc(NC(C)=O)cc2)cc1
inactive: [6] 97 % of control | [7] 98 % of control | [20] 97 % of control

O=C(N/N=C/c1ccc2c(c1)OCO2)c1ccc([N+](=O)[O-])cc1
inactive: [14] 97 % of control | [11] 92 % of control | [12] 94 % of control | [13] 92 % of control

O=C(CCl)Nc1ccc(O)c2ccccc12
inactive: dose: 75.0 mg/kg/injection, schedule: Q01DX001 (ip), vehicle: other 102 % of control | dose: 150.0 mg/kg/injection, schedule: Q01DX001 (ip), vehicle: other 91 % of control

c1ccc(C(CC(c2ccccc2)(c2ccccc2)c2ccccc2)(c2ccccc2)c2ccccc2)cc1
inactive: [18] 96 % of control | [19] 94 % of control | dose: 400.0 mg/kg/injection, schedule: Q01DX001 (ip), vehicle: saline 105 % of control

O=C(Nc1cccc(F)c1)N(Cc1ccccc1)c1ccccc1
inactive: [6] 91 % of control | [7] 91 % of control | [20] 98 % of control
